From US20040235049A1, “Device for presentation of polypeptides able to be used as a chip for miniaturised detection of molecules” (priority 2001, published 2004)
Like-named read-outs stand apart in the source and are kept apart here.

Columns and labels:
[1] = system: antibodies directed against NS3 (HCV) in sera; format: binding, human
[2] = target: Streptavidin Tetramethyl Rhodamine conjugate (Streptomyces avidinii, UniProt P22629)
Procedure: (§1) Each concentration is spotted 6 times per slide.
(§2) The slides are incubated for 2 hours at 37° C. under a moist atmosphere. A series of 4 successive washings is carried out with PBS solution to which 0.05% Tween 20 had been added. The slides are then rinsed with a deionised water wash-bottle then with 95° ethanol for 1 minute, then dried for 15 minutes in the ambient atmosphere.
(§3) The results expressed in the following table correspond to the mean fluorescence and to the standard deviation of the 6 spots of each concentration obtained after incubation of the rhodamine-conjugated streptavidin and the rhodamine- conjugated anti-biotin antibody respectively.

[3] = system: Rhodamine Conjugated affinity Purified anti-Biotin [goat]
Procedure: as §1, §2, §3

[4] = target: rhodamine-conjugated streptavidin (Streptomyces avidinii, UniProt P22629); settings: streptavidin 10^−3 mg/ml
rhodamine-conjugated streptavidin, sequence (P22629 37-163 limits assumed): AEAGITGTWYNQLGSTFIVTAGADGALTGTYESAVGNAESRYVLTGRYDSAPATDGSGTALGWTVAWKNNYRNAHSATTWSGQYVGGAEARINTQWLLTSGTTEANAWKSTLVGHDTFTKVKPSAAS
Procedure: as §1
The slides are then incubated in the presence of 150 μl of a 10^−3 mg/ml solution of rhodamine-conjugated streptavidin (solution of streptavidin Tetramethyl Rhodamine conjugate (Molecular Probes, Oregon, USA)) diluted in an 0.01 M PBS buffer, pH 7.2 in 15 the presence of different concentrations of biotin (10^−3 M, 10^−4 M, 10^−5 M, 10^−7 M and 0 M under a glass cover slip (24×60 mm). The slides are incubated for 2 hours at 37° C. under a moist atmosphere. A series of 4 successive washings is carried out with PBS solution to which 0.05% Tween 20 had been added. The slides are then rinsed, dried and analysed as stated above.

[5] = Sérum 1, NS3 positive, positivity threshold 2205
[6] = Sérum 2, NS3 positive, positivity threshold 3565
[7] = Sérum 3, NS3 positive, positivity threshold 4374
[8] = Sérum 4, NS3 positive, positivity threshold 2774
[9] = Sérum HCV-, positivity threshold 1271

Streptavidin Tetramethyl Rhodamine conjugate, sequence (P22629 37-163 limits assumed): as above

For IPTSGDVVVV [Peptide 23], the Fluorescence [1, 5] was 2983, the Fluorescence [1, 6] was 3394 and the Fluorescence [1, 7] was 1818. It also gave a Fluorescence [1, 8] of 4505 and a Fluorescence [1, 9] of 904.

Work on LEAIKGGRHL [Peptide 7] yielded a Fluorescence [1, 5] of 1845, a Fluorescence [1, 6] of 1307 and a Fluorescence [1, 7] of 1084. For the same substance, the Fluorescence [1, 8] was 3077 and the Fluorescence [1, 9] was 574.

With SVIPTSGDVV [Peptide 21] the Fluorescence [1, 5] was 3553, the Fluorescence [1, 6] was 8321 and the Fluorescence [1, 7] was 2244. The Fluorescence [1, 8] was 6853 and the Fluorescence [1, 9] was 913.

With “H-Lys(biotin-G2)AYLAG-NH(CH2)3O(CH2)2O(CH2)2O(CH2)3NHCOCHO [pep-Biotine]” the “mean fluorescence (6 spots)” value ([2]; pep-Biotine 10^−3 mg/ml, streptavidin 10^−1 mg/ml) was 34660, the “mean fluorescence (6 spots)” value ([2]; pep-Biotine 10^−3 mg/ml, streptavidin 10^−3 mg/ml) was 29836 and the “mean fluorescence (6 spots)” value ([2]; pep-Biotine 10^−3 mg/ml, streptavidin 10^−4 mg/ml) was 13816. For the same substance, the “mean fluorescence (6 spots)” value ([2]; pep-Biotine 10^−4 mg/ml, streptavidin 10^−1 mg/ml) was 31781, the “mean fluorescence (6 spots)” value ([2]; pep-Biotine 10^−4 mg/ml, streptavidin 10^−3 mg/ml) was 24666 and the “mean fluorescence (6 spots)” value ([2]; pep-Biotine 10^−4 mg/ml, streptavidin 10^−4 mg/ml) was 7931. For the same substance, the “mean fluorescence (6 spots)” value ([2]; pep-Biotine 10^−5 mg/ml, streptavidin 10^−1 mg/ml) was 26524, the “mean fluorescence (6 spots)” value ([2]; pep-Biotine 10^−5 mg/ml, streptavidin 10^−3 mg/ml) was 20902 and the “mean fluorescence (6 spots)” value ([2]; pep-Biotine 10^−5 mg/ml, streptavidin 10^−4 mg/ml) was 7673. The “mean fluorescence (6 spots)” value ([2]; pep-Biotine 10^−6 mg/ml, streptavidin 10^−1 mg/ml) was 18500, the “mean fluorescence (6 spots)” value ([2]; pep-Biotine 10^−6 mg/ml, streptavidin 10^−3 mg/ml) was 10737 and the “mean fluorescence (6 spots)” value ([2]; pep-Biotine 10^−6 mg/ml, streptavidin 10^−4 mg/ml) was 2124. The “mean fluorescence (6 spots)” value ([3]; pep-Biotine 10^−3 mg/ml, anti-biotin antibody 10^−1 mg/ml) was 15350, the “mean fluorescence (6 spots)” value ([3]; pep-Biotine 10^−3 mg/ml, anti-biotin antibody 10^−2 mg/ml) was 13113 and the “mean fluorescence (6 spots)” value ([3]; pep-Biotine 10^−3 mg/ml, anti-biotin antibody 10^−3 mg/ml) was 6828. For the same substance, the “mean fluorescence (6 spots)” value ([3]; pep-Biotine 10^−3 mg/ml, anti-biotin antibody 10^−4 mg/ml) was 2271, the “mean fluorescence (6 spots)” value ([3]; pep-Biotine 10^−4 mg/ml, anti-biotin antibody 10^−1 mg/ml) was 14721 and the “mean fluorescence (6 spots)” value ([3]; pep-Biotine 10^−4 mg/ml, anti-biotin antibody 10^−2 mg/ml) was 9121. For the same substance, the “mean fluorescence (6 spots)” value ([3]; pep-Biotine 10^−4 mg/ml, anti-biotin antibody 10^−3 mg/ml) was 4981, the “mean fluorescence (6 spots)” value ([3]; pep-Biotine 10^−4 mg/ml, anti-biotin antibody 10^−4 mg/ml) was 1535 and the “mean fluorescence (6 spots)” value ([3]; pep-Biotine 10^−5 mg/ml, anti-biotin antibody 10^−1 mg/ml) was 10932. For the same substance, the “mean fluorescence (6 spots)” value ([3]; pep-Biotine 10^−5 mg/ml, anti-biotin antibody 10^−2 mg/ml) was 6849, the “mean fluorescence (6 spots)” value ([3]; pep-Biotine 10^−5 mg/ml, anti-biotin antibody 10^−3 mg/ml) was 3377 and the “mean fluorescence (6 spots)” value ([3]; pep-Biotine 10^−5 mg/ml, anti-biotin antibody 10^−4 mg/ml) was 1249. The “mean fluorescence (6 spots)” value ([3]; pep-Biotine 10^−6 mg/ml, anti-biotin antibody 10^−1 mg/ml) was 6606, the “mean fluorescence (6 spots)” value ([3]; pep-Biotine 10^−6 mg/ml, anti-biotin antibody 10^−2 mg/ml) was 2947 and the “mean fluorescence (6 spots)” value ([3]; pep-Biotine 10^−6 mg/ml, anti-biotin antibody 10^−3 mg/ml) was 791. The “mean fluorescence (6 spots)” value ([3]; pep-Biotine 10^−6 mg/ml, anti-biotin antibody 10^−4 mg/ml) was 385, the “mean fluorescence (6 spots)” value ([4]; pep-Biotine 10^−3 mg/ml, biotin in competition 0 M) was 29836 and the “mean fluorescence (6 spots)” value ([4]; pep-Biotine 10^−3 mg/ml, biotin in competition 10^−3 M) was 376. For the same substance, the “mean fluorescence (6 spots)” value ([4]; pep-Biotine 10^−3 mg/ml, biotin in competition 10^−4 M) was 2237, the “mean fluorescence (6 spots)” value ([4]; pep-Biotine 10^−3 mg/ml, biotin in competition 10^−6 M) was 16683 and the “mean fluorescence (6 spots)” value ([4]; pep-Biotine 10^−3 mg/ml, biotin in competition 10^−7 M) was 17132. The “mean fluorescence (6 spots)” value ([4]; pep-Biotine 10^−4 mg/ml, biotin in competition 0 M) was 24666, the “mean fluorescence (6 spots)” value ([4]; pep-Biotine 10^−4 mg/ml, biotin in competition 10^−3 M) was 207 and the “mean fluorescence (6 spots)” value ([4]; pep-Biotine 10^−4 mg/ml, biotin in competition 10^−4 M) was 961. The “mean fluorescence (6 spots)” value ([4]; pep-Biotine 10^−4 mg/ml, biotin in competition 10^−6 M) was 9414, the “mean fluorescence (6 spots)” value ([4]; pep-Biotine 10^−4 mg/ml, biotin in competition 10^−7 M) was 12178 and the “mean fluorescence (6 spots)” value ([4]; pep-Biotine 10^−5 mg/ml, biotin in competition 0 M) was 20902. The “mean fluorescence (6 spots)” value ([4]; pep-Biotine 10^−5 mg/ml, biotin in competition 10^−3 M) was 107, the “mean fluorescence (6 spots)” value ([4]; pep-Biotine 10^−5 mg/ml, biotin in competition 10^−4 M) was 322 and the “mean fluorescence (6 spots)” value ([4]; pep-Biotine 10^−5 mg/ml, biotin in competition 10^−6 M) was 3588. For the same substance, the “mean fluorescence (6 spots)” value ([4]; pep-Biotine 10^−5 mg/ml, biotin in competition 10^−7 M) was 6129, the “mean fluorescence (6 spots)” value ([4]; pep-Biotine 10^−6 mg/ml, biotin in competition 0 M) was 10737 and the “mean fluorescence (6 spots)” value ([4]; pep-Biotine 10^−6 mg/ml, biotin in competition 10^−3 M) was 78. The “mean fluorescence (6 spots)” value ([4]; pep-Biotine 10^−6 mg/ml, biotin in competition 10^−4 M) was 189, the “mean fluorescence (6 spots)” value ([4]; pep-Biotine 10^−6 mg/ml, biotin in competition 10^−6 M) was 2350 and the “mean fluorescence (6 spots)” value ([4]; pep-Biotine 10^−6 mg/ml, biotin in competition 10^−7 M) was 2611.

IPLEAIKGGR [Peptide 5] gave a Fluorescence [1, 5] of 2260, a Fluorescence [1, 6] of 2339 and a Fluorescence [1, 7] of 1549. For the same substance, the Fluorescence [1, 8] was 4739 and the Fluorescence [1, 9] was 945.

ELAAKLSGLG [Peptide 9] was tested, and the Fluorescence [1, 5] was 1582, the Fluorescence [1, 6] was 1142 and the Fluorescence [1, 7] was 1671. The Fluorescence [1, 8] was 2418 and the Fluorescence [1, 9] was 508.

For AAKLSGLGIN [Peptide 11], the Fluorescence [1, 5] was 2156, the Fluorescence [1, 6] was 1557 and the Fluorescence [1, 7] was 1458. It also gave a Fluorescence [1, 8] of 5283 and a Fluorescence [1, 9] of 628.

KAIPLEAIKG [Peptide 3] was tested, and the Fluorescence [1, 5] was 2803, the Fluorescence [1, 6] was 3161 and the Fluorescence [1, 7] was 1694. The Fluorescence [1, 8] was 5065 and the Fluorescence [1, 9] was 924.

Work on EAIKGGRHLL [Peptide 8] yielded a Fluorescence [1, 5] of 2343, a Fluorescence [1, 6] of 1220 and a Fluorescence [1, 7] of 1159. The Fluorescence [1, 8] was 2587 and the Fluorescence [1, 9] was 525.

Substance YGKAIPLEAI [Peptide 1] has a Fluorescence [1, 5] of 3735, a Fluorescence [1, 6] of 3143 and a Fluorescence [1, 7] of 2608. For the same substance, the Fluorescence [1, 8] was 6357 and the Fluorescence [1, 9] was 917.

Substance PLEAIKGGRH [Peptide 6] has a Fluorescence [1, 5] of 2789, a Fluorescence [1, 6] of 3136 and a Fluorescence [1, 7] of 2821. The Fluorescence [1, 8] was 5932 and the Fluorescence [1, 9] was 957.

LAAKLSGLGI [Peptide 10] showed a Fluorescence [1, 5] of 3166, a Fluorescence [1, 6] of 2418 and a Fluorescence [1, 7] of 1684. The Fluorescence [1, 8] was 9152 and the Fluorescence [1, 9] was 551.

SGLGINAVAY [Peptide 15] showed a Fluorescence [1, 5] of 17944, a Fluorescence [1, 6] of 10603 and a Fluorescence [1, 7] of 4786. For the same substance, the Fluorescence [1, 8] was 8262 and the Fluorescence [1, 9] was 791.

In the case of VIPTSGDVVV [Peptide 22], the Fluorescence [1, 5] is reported as 1882, the Fluorescence [1, 6] is reported as 1466 and the Fluorescence [1, 7] is reported as 1385. For the same substance, the Fluorescence [1, 8] was 2963 and the Fluorescence [1, 9] was 648.

With GKAIPLEAIK [Peptide 2] the Fluorescence [1, 5] was 3590, the Fluorescence [1, 6] was 8023 and the Fluorescence [1, 7] was 3495. It also gave a Fluorescence [1, 8] of 7405 and a Fluorescence [1, 9] of 933.

PTSGDYVVVA [Peptide 24] was tested, and the Fluorescence [1, 5] was 1835, the Fluorescence [1, 6] was 1436 and the Fluorescence [1, 7] was 1387. For the same substance, the Fluorescence [1, 8] was 3532 and the Fluorescence [1, 9] was 573.

DVSVIPTSGD [Peptide 19] was tested, and the Fluorescence [1, 5] was 9088, the Fluorescence [1, 6] was 4111 and the Fluorescence [1, 7] was 2337. For the same substance, the Fluorescence [1, 8] was 4939 and the Fluorescence [1, 9] was 567.

With VSVIPTSGDV [Peptide 20] the Fluorescence [1, 5] was 7909, the Fluorescence [1, 6] was 4711 and the Fluorescence [1, 7] was 2873. The Fluorescence [1, 8] was 11266 and the Fluorescence [1, 9] was 718.

AIPLEAIKGG [Peptide 4] gave a Fluorescence [1, 5] of 2899, a Fluorescence [1, 6] of 2988 and a Fluorescence [1, 7] of 2497. The Fluorescence [1, 8] was 5598 and the Fluorescence [1, 9] was 1011.

LDVSVIPTSG [Peptide 18] was tested, and the Fluorescence [1, 5] was 29857, the Fluorescence [1, 6] was 4113 and the Fluorescence [1, 7] was 4824. The Fluorescence [1, 8] was 6209 and the Fluorescence [1, 9] was 667.

Substance GLGINAVAYY [Peptide 16] has a Fluorescence [1, 5] of 4201, a Fluorescence [1, 6] of 5577 and a Fluorescence [1, 7] of 1861. It also gave a Fluorescence [1, 8] of 5602 and a Fluorescence [1, 9] of 931.

GLDVSVIPTS [Peptide 17] gave a Fluorescence [1, 5] of 7976, a Fluorescence [1, 6] of 6423 and a Fluorescence [1, 7] of 2619. It also gave a Fluorescence [1, 8] of 7338 and a Fluorescence [1, 9] of 754.
